Results reported in ChEMBL document CHEMBL1125222, “Activity of N6-substituted 2-chloroadenosines at A1 and A2 adenosine receptors” (J Med Chem, 1991).

Tests used:
[1] = Effective concentration against A2AR mediated P12 adenylatencyclase activity; format: functional, Rattus norvegicus
[2] = Concentration required to increase Adenosine A2A receptor mediated P12 Adenylate cyclase activity; format: functional, Rattus norvegicus
[3] = target: T1, Adenosine receptor A1 (Rattus norvegicus, UniProt P25099); assay: Inhibition of [3H]- (R)-P1A binding to adenosine A1 receptor
T1 sequence (P25099 whole entry): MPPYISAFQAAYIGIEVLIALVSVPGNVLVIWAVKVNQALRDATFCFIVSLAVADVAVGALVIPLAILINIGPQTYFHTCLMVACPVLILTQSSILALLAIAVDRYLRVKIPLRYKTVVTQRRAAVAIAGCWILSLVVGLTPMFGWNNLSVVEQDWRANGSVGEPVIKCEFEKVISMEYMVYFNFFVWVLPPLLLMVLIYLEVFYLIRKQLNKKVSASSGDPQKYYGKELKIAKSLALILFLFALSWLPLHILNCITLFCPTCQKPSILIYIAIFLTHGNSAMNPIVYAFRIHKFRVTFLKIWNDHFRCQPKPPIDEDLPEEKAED

[4] = target: Adenosine A2 receptor (Rattus norvegicus, UniProt P29276+P30543); assay: Inhibition of [3H]- NECA binding to adenosine receptor A2; format: protein assay
[5] = target: T1, Adenosine receptor A1

Compound	EC50 [1]	EC50 [2]	Ki [3]	Ki [4]	Ki [5]
Nc1nc(Cl)nc2c1ncn2[C@@H]1O[C@H](CO)[C@@H](O)[C@H]1O		460 nM	6.7 nM		
C[C@@H](Cc1ccccc1)Nc1nc(Cl)nc2c1ncn2[C@@H]1O[C@H](CO)[C@@H](O)[C@H]1O	3000 nM			3000 nM	20 nM
C[C@H](Cc1ccccc1)Nc1nc(Cl)nc2c1ncn2[C@@H]1O[C@H](CO)[C@@H](O)[C@H]1O	320 nM			220 nM	1.4 nM
OC[C@H]1OC(n2cnc3c(Nc4ccccc4)nc(Cl)nc32)[C@H](O)[C@@H]1O (stereo not given in full)	1600 nM			1700 nM	7.6 nM
C[C@H](Cc1ccccc1)Nc1ncnc2c1ncn2[C@@H]1O[C@H](CO)[C@@H](O)[C@H]1O [(R)-PIA]	980 nM				
C[C@@H](Cc1ccccc1)Nc1ncnc2c1ncn2[C@@H]1O[C@H](CO)[C@@H](O)[C@H]1O [(S)-PIA]		4200 nM			

The remaining lines, values ahead:

EC50 [1]	EC50 [2]	Ki [3]	Ki [4]	Ki [5]	Compound
730 nM					OC[C@H]1O[C@@H](n2cnc3c(NC4CCCC4)nc(Cl)nc32)[C@H](O)[C@@H]1O
	150 nM				Nc1ncnc2c1ncn2[C@@H]1O[C@H](CO)[C@@H](O)[C@H]1O [ADENOSINE]
3200 nM			510 nM		OC[C@H]1O[C@@H](n2cnc3c(NC4CCCC4)ncnc32)[C@H](O)[C@@H]1O [N6-CYCLOPENTYLADENOSINE]
3100 nM			1200 nM	16 nM	OC[C@H]1O[C@@H](n2cnc3c(Nc4ccccc4)ncnc32)[C@H](O)[C@@H]1O [N6-PHENYLADENOSINE]
